Measurements published in paper PMC5578959, “Selective LRRK2 kinase inhibition reduces phosphorylation of endogenous Rab10 and Rab12 in human peripheral mononuclear blood cells” (Scientific Reports, 2017).

Legend:
Experiment in all cases: KiNativ profiling in human PBMCs
Assay type in all cases: binding
[1] = tested on: T1, SYK
T1 construct: purchased ActivX Technologies (KiNativ)
Outline: (§1)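 KiNativ readout; intact PBMCs dosed with compound at two concentrations (1 µM, 0.1 µM) before profiling.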

[2] = tested on: T2, IKKa; conditions: Lys2
T2 construct: purchased ActivX Technologies (KiNativ)
Outline: as §1

[3] = tested on: T3, CaMK2d; conditions: Lys1
T3 construct: purchased ActivX Technologies (KiNativ)
Outline: as §1

[4] = tested on: T4, NEK7; conditions: Lys1
T4 construct: purchased ActivX Technologies (KiNativ)
Outline: as §1

[5] = tested on: MAP3K2,MAP3K3; conditions: Lys2
Outline: as §1

[6] = tested on: CaMK2a,CaMK2b,CaMK2d,CaMK2g; conditions: Lys2
Outline: as §1

[7] = tested on: T5, HPK1
T5 construct: purchased ActivX Technologies (KiNativ)
Outline: as §1

[8] = tested on: TAO1,TAO3; conditions: Lys2
Outline: as §1

[9] = tested on: Wnk1,Wnk2,Wnk4; conditions: Activation Loop
Outline: as §1

[10] = tested on: T6, LOK
T6 construct: purchased ActivX Technologies (KiNativ)
Outline: as §1

[11] = tested on: T7, IRE1; conditions: Lys2
T7 construct: purchased ActivX Technologies (KiNativ)
Outline: as §1

[12] = tested on: T8, RSKL1 domain1; conditions: Protein Kinase Domain
T8 construct: RSKL1 domain1; purchased ActivX Technologies (KiNativ)
Outline: as §1

[13] = tested on: T9, LCK; conditions: 1µM; Activation Loop
T9 construct: purchased ActivX Technologies (KiNativ)
Outline: as §1

[14] = tested on: T10, PIP5K3; conditions: ATP
T10 construct: purchased ActivX Technologies (KiNativ)
Outline: as §1

[15] = tested on: T11, PI4KB; conditions: ATP
T11 construct: purchased ActivX Technologies (KiNativ)
Outline: as §1

[16] = tested on: T12, QSK; conditions: Lys1
T12 construct: purchased ActivX Technologies (KiNativ)
Outline: as §1

[17] = tested on: T13, MLKL; conditions: Lys1
T13 construct: purchased ActivX Technologies (KiNativ)
Outline: as §1

[18] = tested on: T14, GCK
T14 construct: purchased ActivX Technologies (KiNativ)
Outline: as §1

[19] = tested on: T15, LYN
T15 construct: purchased ActivX Technologies (KiNativ)
Outline: as §1

[20] = tested on: p38d,p38g; conditions: Lys2
Outline: as §1

[21] = tested on: MAP2K1,MAP2K2; conditions: Lys2
Outline: as §1

[22] = tested on: T16, LKB1; conditions: Lys2
T16 construct: purchased ActivX Technologies (KiNativ)
Outline: as §1

[23] = tested on: T17, MAST3; conditions: Lys2
T17 construct: purchased ActivX Technologies (KiNativ)
Outline: as §1

[24] = tested on: AKT2,AKT3; conditions: ATP Loop
Outline: as §1

[25] = tested on: T18, IKKb; conditions: Lys2
T18 construct: purchased ActivX Technologies (KiNativ)
Outline: as §1

[26] = tested on: T19, TLK2; conditions: Lys2
T19 construct: purchased ActivX Technologies (KiNativ)
Outline: as §1

[27] = tested on: T20, MARK3; conditions: Lys1
T20 construct: purchased ActivX Technologies (KiNativ)
Outline: as §1

[28] = tested on: T21, HCK; conditions: Activation Loop
T21 construct: purchased ActivX Technologies (KiNativ)
Outline: as §1

[29] = tested on: T22, NEK1; conditions: Lys2
T22 construct: purchased ActivX Technologies (KiNativ)
Outline: as §1

[30] = tested on: T23, FRAP; conditions: ATP
T23 construct: purchased ActivX Technologies (KiNativ)
Outline: as §1

[31] = tested on: Wnk1,Wnk2,Wnk3; conditions: Lys2
Outline: as §1

[32] = tested on: T24, CK1g2; conditions: Lys2
T24 construct: purchased ActivX Technologies (KiNativ)
Outline: as §1

[33] = tested on: T25, NDR2
T25 construct: purchased ActivX Technologies (KiNativ)
Outline: as §1

[34] = tested on: T26, PIP4K2A; conditions: ATP
T26 construct: purchased ActivX Technologies (KiNativ)
Outline: as §1

[35] = tested on: T27, RSK1 domain1
T27 construct: RSK1 domain1; purchased ActivX Technologies (KiNativ)
Outline: as §1

[36] = tested on: T28, KHS1; conditions: Lys1
T28 construct: purchased ActivX Technologies (KiNativ)
Outline: as §1

## Cc1cccc(-c2cc(Nc3ccn(C)n3)nc3[nH]cc(C#N)c23)c1 [Lu AF58786]
[1]; 0.1µM, Activation Loop
  Inhibition: 8.3%
[1]; 0.1µM, Lys1
  Inhibition: 12.8%
[1]; 1µM, Lys1
  Inhibition: -5.9%
[2]; 0.1µM
  Inhibition: 9.8%
[2]; 1µM
  Inhibition: 6.8%
[3]; 0.1µM
  Inhibition: 3.9%
[3]; 1µM
  Inhibition: -3.2%
[4]; 0.1µM
  Inhibition: -17.5%
[4]; 1µM
  Inhibition: 16.7%
[5]; 0.1µM
  Inhibition: 6.3%
[5]; 1µM
  Inhibition: 0.325%
[6]; 0.1µM
  Inhibition: -12.1%
[6]; 1µM
  Inhibition: -1.0%
[7]; 0.1µM, Lys2
  Inhibition: 13.0%
[7]; 1µM, Lys1
  Inhibition: 8.1%
[7]; 1µM, Lys2
  Inhibition: 21.1%
[8]; 0.1µM
  Inhibition: 27.6%
[8]; 1µM
  Inhibition: 15.9%
[9]; 0.1µM
  Inhibition: 0.9%
[9]; 1µM
  Inhibition: -6.6%
[10]; 0.1µM, Lys1
  Inhibition: 13.2%
[10]; 0.1µM, Lys2
  Inhibition: 1.8%
[10]; 1µM, Lys1
  Inhibition: 9.9%
[11]; 0.1µM
  Inhibition: -7.8%
[11]; 1µM
  Inhibition: -11.6%
[12]; 0.1µM
  Inhibition: 15.2%
[12]; 1µM
  Inhibition: 1.9%
[13]
  Inhibition: 5.7%
[14]; 0.1µM
  Inhibition: -2.2%
[14]; 1µM
  Inhibition: 4.2%
[15]; 0.1µM
  Inhibition: 15.3%
[15]; 1µM
  Inhibition: 6.2%
[16]; 0.1µM
  Inhibition: 15.6%
[16]; 1µM
  Inhibition: 28.4%
[17]; 0.1µM
  Inhibition: -7.9%
[17]; 1µM
  Inhibition: -7.5%
[18]; 0.1µM, Lys1
  Inhibition: 14.1%
[18]; 0.1µM, Lys2
  Inhibition: 16.9%
[18]; 1µM, Lys1
  Inhibition: 5.5%
[18]; 1µM, Lys2
  Inhibition: -3.1%
[19]; 0.1µM, Activation Loop
  Inhibition: -18.7%
[19]; 0.1µM, Lys1
  Inhibition: -21.4%
[19]; 1µM, Activation Loop
  Inhibition: 1.0%
[19]; 1µM, Lys1
  Inhibition: -4.5%
[20]; 0.1µM
  Inhibition: 7.1%
[20]; 1µM
  Inhibition: -0.541%
[21]; 0.1 µM, DVKPSNILVNSR
  Inhibition: 4.0%
[21]; 1 µM, DVKPSNILVNSR
  Inhibition: 1.8%
[21]; 1 µM, IMHRDVKPSNILVNSR
  Inhibition: 14.1%
[22]; 0.1µM
  Inhibition: 6.1%
[22]; 1µM
  Inhibition: 3.9%
[23]; 0.1µM
  Inhibition: 11.5%
[23]; 1µM
  Inhibition: 0.2%
[24]; 0.1µM
  Inhibition: -0.7%
[24]; 1µM
  Inhibition: -7.3%
[25]; 0.1µM
  Inhibition: 11.5%
[25]; 1µM
  Inhibition: -4.3%
[26]; 0.1µM
  Inhibition: 13.3%
[26]; 1µM
  Inhibition: -1.2%
[27]; 0.1µM
  Inhibition: 2.1%
[27]; 1µM
  Inhibition: 3.2%
[28]; 0.1µM
  Inhibition: -0.451%
[28]; 1µM
  Inhibition: -12.8%
[29]; 0.1µM
  Inhibition: -2.3%
[29]; 1µM
  Inhibition: -14.0%
[30]; 0.1µM
  Inhibition: 5.2%
[30]; 1µM
  Inhibition: -3.4%
[31]; 0.1µM
  Inhibition: 10.5%
[31]; 1µM
  Inhibition: -5.4%
[32]; 0.1µM
  Inhibition: 5.2%
[32]; 1µM
  Inhibition: -0.12%
[33]; 0.1µM, Lys1
  Inhibition: -14.6%
[33]; 0.1µM, Lys2
  Inhibition: 10.7%
[33]; 1µM, Lys1
  Inhibition: -18.5%
[33]; 1µM, Lys2
  Inhibition: 1.3%
[34]; 0.1µM
  Inhibition: -4.0%
[34]; 1µM
  Inhibition: -14.7%
[35]; 0.1µM, Activation Loop
  Inhibition: 8.7%
[35]; 0.1µM, Lys2
  Inhibition: -0.654%
[35]; 1µM, Activation Loop
  Inhibition: 18.4%
[35]; 1µM, Lys2
  Inhibition: 12.8%
[36]; 0.1µM
  Inhibition: 3.0%
[36]; 1µM
  Inhibition: -2.5%
